Test results from article PMC7129073 (Clinical Microbiology and Infection, 2015).
In brackets after ≈: the same amount, converted by molar mass. Read-outs that look alike come from different tables or passages of the source.

Experiments:
[1] = tested on: K. pneumoniae; assay: MIC; type: cell-based, Klebsiella pneumoniae; conditions: Klebsiella pneumoniae
[2] = tested on: S. aureus ATCC 29213; assay: Cefoxitin Neo-Sensitabs tablet diffusion, control strain; type: cell-based; conditions: Staphylococcus aureus, ATCC29213, read-out: zone diameter
[3] = tested on: S. aureus ATCC 25923; assay: as above; type: cell-based; conditions: Staphylococcus aureus, ATCC25923, read-out: zone diameter
[4] = tested on: inducible Enterobacteriaceae; assay: SMART 2003, intraabdominal isolates; type: cell-based
[5] = tested on: Enterobacteriaceae; assay: SMART 2003 Europe, microdilution; type: cell-based; conditions: 1948 isolates
[6] = tested on: E. coli; assay: SMART 2003 Europe, microdilution; type: cell-based, Escherichia coli; conditions: 1106 isolates
[7] = tested on: Klebsiella; assay: SMART 2003 Europe, microdilution; type: cell-based, Klebsiella spp.; conditions: 341 isolates
[8] = tested on: Pseudomonas putida clinical isolates; assay: Agar dilution MIC; type: cell-based
[9] = tested on: Shigella spp.; assay: Disk diffusion, stool isolates Tehran; type: cell-based; conditions: 96 isolates
[10] = tested on: K. oxytoca isolate; assay: MIC of qnr-positive SHV-12 producer; type: cell-based; conditions: Klebsiella oxytoca
[11] = tested on: Streptococcus agalactiae strains P0162 and P0425; assay: Microdilution; type: cell-based
[12] = tested on: Salmonella enterica; assay: VITEK, NCCLS microdilution and disc diffusion of quinolones; type: cell-based
[13] = tested on: Acinetobacter; assay: Disk diffusion; type: cell-based; conditions: 37 isolates selected as resistant to beta-lactams
[14] = tested on: viridans group streptococci (VGS); assay: MIC; type: cell-based
[15] = tested on: E. coli; assay: Resistance of UTI isolates of renal transplant recipients; type: cell-based, Escherichia coli; conditions: 75 isolates
[16] = tested on: N.gonorrhoeae; assay: microbe, parasite or virus in culture; type: cell-based; conditions: Neisseria gonorrhoeae
[17] = tested on: Nocardia spp.; assay: E-test on Mueller Hinton agar, 81 clinical isolates; type: cell-based; conditions: Nocardia
[18] = tested on: S. pneumoniae; assay: PROTEKT Italy, NCCLS microdilution; type: cell-based, Streptococcus pneumoniae
[19] = tested on: B. fragilis; assay: NCCLS broth microdilution, beta-lactamase positive isolates; type: cell-based, Bacteroides fragilis; conditions: 48 hr
[20] = tested on: B. distasonis; assay: as above; type: cell-based, Bacteroides distasonis; conditions: 48 hr
[21] = tested on: B. thetaiotaomicron; assay: as above; type: cell-based, Bacteroides thetaiotaomicron; conditions: 48 hr
[22] = tested on: B. ovatus; assay: as above; type: cell-based, Bacteroides ovatus; conditions: 48 hr
[23] = tested on: B. vulgatus; assay: as above; type: cell-based, Bacteroides vulgatus; conditions: 48 hr

Compound: CO[C@@]1(NC(=O)Cc2cccs2)C(=O)N2C(C(=O)O)=C(COC(N)=O)CS[C@@H]21 [cefoxitin]
- MIC [1]: > 64 µg/mL
- zone of inhibition at 10 µg/disc [2]: 21 to 23 mm
- zone of inhibition at 30 µg/disc [2]: 27 to 29 mm
- zone of inhibition at 60 µg/disc [2]: 29 to 33 mm
- zone of inhibition at 10 µg/disc [3]: 22 to 23 mm
- zone of inhibition at 30 µg/disc [3]: 27 to 29 mm
- zone of inhibition at 60 µg/disc [3]: 32 to 33 mm
- % susceptible ([4]; A/P (N = 200)): 27%
- % susceptible ([4]; EU (N = 354)): 29%
- % susceptible ([4]; LA (N=113)): 30%
- % susceptible ([4]; NA (N = 163)): 23%
- per cent susceptible [5]: 82%
- per cent susceptible [6]: 94%
- per cent susceptible [7]: 92%

Compound: CCn1cc(C(=O)O)c(=O)c2cc(F)c(N3CCNCC3)cc21 [norfloxacin]
- MIC [8]: > 128 µg/mL
- sensitive [9]: 100%
- MIC [10]: < 0.1 µg/mL
- MIC ([11]; strain P0162 (ParC Ser79Phe, GyrA Glu85Ala)): > 256 µg/mL
- MIC ([11]; strain P0425 (ParC Ser79Phe, GyrA Glu85Lys)): > 256 µg/mL
- MIC ([12]; read-out: NCCLS MIC, 37 NAL-R strains): 0.54 µg/mL (≈ 1.69 µM)
- MIC ([12]; read-out: NCCLS MIC, NAL-S strains): ≤ 0.06 µg/mL
- MIC ([12]; read-out: VITEK MIC, 37 strains): 2 µg/mL (≈ 6.26 µM)
- MIC ([12]; read-out: VITEK MIC, five strains): < 0.5 µg/mL
- resistant isolates [13]: 100.0%

Compound: CO/N=C(\C(=O)N[C@@H]1C(=O)N2C(C(=O)O)=C(CSc3nc(=O)c(=O)[nH]n3C)CS[C@H]12)c1csc(N)n1 [ceftriaxone]
- MIC50 [14]: 0.06 µg/mL (≈ 0.108 µM)
- MIC90 [14]: 0.5 µg/mL (≈ 0.902 µM)
- sensitive [9]: 100%
- rate of resistance [15]: 1%
- MIC ([16]; strain 76mu6): 0.12 µg/mL (≈ 0.216 µM)
- MIC ([16]; strain 92mu6): 0.015 µg/mL (≈ 0.027 µM)
- MIC ([16]; strain 92mu13): 0.008 µg/mL (≈ 0.0144 µM)
- MIC50 [17]: 8 µg/mL (≈ 14.4 µM)
- MIC90 [17]: > 256 µg/mL
- resistant isolates [13]: 75.7%
- % susceptible ([4]; A/P (N = 200)): 60%
- % susceptible ([4]; EU (N = 354)): 79%
- % susceptible ([4]; LA (N=113)): 71%
- % susceptible ([4]; NA (N = 163)): 75%
- per cent susceptible [5]: 91%
- per cent susceptible [7]: 89%
- susceptible ([18]; year 1: 2002): 88.9%
- susceptible ([18]; year 2: 2003): 93.7%

Compound: C[C@]1(Cn2ccnn2)[C@H](C(=O)O)N2C(=O)C[C@H]2S1(=O)=O [Tz, Tazobactam]
- isolates inhibited at 8 mg/L [19]: 97%
- isolates inhibited at 16 mg/L [19]: 98%
- isolates inhibited at =/< 4 mg/L [19]: 86%
- isolates inhibited at 8 mg/L [20]: 50%
- isolates inhibited at 16 mg/L [20]: 100%
- isolates inhibited at =/< 4 mg/L [20]: 25%
- isolates inhibited at 16 mg/L [21]: 100%
- isolates inhibited at =/< 4 mg/L [21]: 42%
- isolates inhibited at 8 mg/L [22]: 56%
- isolates inhibited at 16 mg/L [22]: 86%
- isolates inhibited at =/< 4 mg/L [22]: 23%
- isolates inhibited at 8 mg/L [23]: 83%
- isolates inhibited at 16 mg/L [23]: 100%
- isolates inhibited at =/< 4 mg/L [23]: 50%

Compound: Ampicillin/ Sulbactam [A/S]
- rate of resistance [15]: 34%
- resistant isolates [13]: 10.8%
